Source: US20170022171A1, “2,5-DISUBSTITUTED CYCLOPENTANECARBOXYLIC ACIDS AND THEIR USE” (Bayer Pharma Aktiengesellschaft, priority 2014, published 2017)

Assays:
Format in all cases: biochemical
[1] = biological target: T1, MMP-3 (Homo sapiens, UniProt P08254); assay: In vitro MMP-3 inhibition test
T1 construct: purchased R&D Systems 513-MP
Description: (§1) The MMP-mediated amidolytic cleavage of a suitable peptide substrate leads to an increase in fluorescent light here too. The signal intensity of the fluorescent light is directly proportional to the enzyme activity. The active concentration of a test compound at which half the enzyme is inhibited (50% signal intensity of the fluorescent light) is reported as the IC50 value.
Recombinant MMP-3 (from R&D Systems, 513-MP) is chemically activated in accordance with the manufacturer's instructions using APMA. 1 μl of the test compound to be analysed (as a solution in DMSO, suitable concentrations, for example, 1 nM to 30 μM) is pipetted into 24 μl of activated enzyme (final concentration, for example, 2 nM) in reaction buffer (50 mM Tris/HCl pH 7.5, 10 mM CaCl2, 150 mM NaCl, 0.05% Brij®-35) in a white 384-hole microtiter plate (MTP). The enzymatic reaction is started by adding the intramolecularly quenched Mca-Arg-Pro-Lys-Pro-Val-Glu-Nval-Trp-Arg-Lys(Dnp)-NH2 substrate (final concentration, for example, 10 μM; R&D Systems, ES-002), so as to result in a total test volume of 50 The course of the MMP-3 reaction is measured by measuring the fluorescence intensity (excitation 320 nm, emission 410 nm) over a suitable period of time (for example over 120 min at a temperature of 32° C.).

[2] = biological target: T2, MMP-14 (Homo sapiens, UniProt P50281); assay: In vitro MMP-14 inhibition test
T2 construct: purchased R&D Systems 918-MP
Description: as §1
(§2) Recombinant MMP-14 (from R&D Systems, 918-MP) is enzymatically activated in accordance with the manufacturer's instructions using recombinant furin (from R&D Systems, 1503-SE). 1 μl of the test compound to be analysed (as a solution in DMSO, suitable concentrations e.g. 1 nM to 30 μM) is pipetted into 24 μl of activated enzyme (final concentration e.g. 0.5 nM) in reaction buffer (50 mM Tris/HCl pH 7.5, 10 mM CaCl2, 150 mM NaCl, 0.05% Brij®-35) in a white 384-hole microtiter plate (MTP). The enzymatic reaction is started by adding the intramolecularly quenched Mca-Lys-Pro-Leu-Gly-Leu-Dpa(Dnp)-Ala-Arg-NH2 substrate (final concentration, for example, 5 μM; R&D Systems, ES-010), so as to result in a total test volume of 50 The course of the MMP-14 reaction is measured by measuring the fluorescence intensity (excitation 320 nm, emission 410 nm) over a suitable period of time (for example over 120 min at a temperature of 32° C.).

[3] = biological target: T3, MMP-8 (Homo sapiens, UniProt P22894); assay: In vitro MMP-8 inhibition test
T3 construct: purchased R&D Systems 908-MP
T3 sequence (P22894 101-467): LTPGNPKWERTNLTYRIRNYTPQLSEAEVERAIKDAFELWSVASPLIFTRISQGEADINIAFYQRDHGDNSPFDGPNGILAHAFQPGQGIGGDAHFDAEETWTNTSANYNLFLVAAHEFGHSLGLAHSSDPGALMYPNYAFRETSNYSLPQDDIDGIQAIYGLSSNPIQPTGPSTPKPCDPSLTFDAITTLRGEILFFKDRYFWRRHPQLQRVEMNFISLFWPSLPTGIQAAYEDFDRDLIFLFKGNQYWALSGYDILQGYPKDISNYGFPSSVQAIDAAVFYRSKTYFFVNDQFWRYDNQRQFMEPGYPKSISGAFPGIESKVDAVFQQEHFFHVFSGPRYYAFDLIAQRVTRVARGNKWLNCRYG
Description: as §1
(§3) Recombinant MMP-8 (from R&D Systems, 908-MP) is chemically activated in accordance with the manufacturer's instructions using APMA. 1 μl of the test compound to be analysed (as a solution in DMSO, suitable concentrations, for example, 1 nM to 30 μM) is pipetted into 24 μl of activated enzyme (final concentration, for example, 0.5 nM) in reaction buffer (50 mM Tris/HCl pH 7.5, 10 mM CaCl2, 150 mM NaCl, 0.05% Brij®-35) in a white 384-hole microtiter plate (MTP). The enzymatic reaction is started by adding the intramolecularly quenched Mca-Pro-Leu-Gly-Leu-Dpa(Dnp)-Ala-Arg-NH2 substrate (final concentration, for example, 10 μM; R&D Systems, ES-001), so as to result in a total test volume of 50 μl. The course of the MMP-8 reaction is measured by measuring the fluorescence intensity (excitation 320 nm, emission 410 nm) over a suitable period of time (for example over 120 min at a temperature of 32° C.).

[4] = biological target: T4, MMP-16 (Homo sapiens, UniProt P51512); assay: In vitro MMP-16 inhibition test
T4 construct: purchased R&D Systems 1785-MP
T4 sequence (P51512 120-564 limits assumed): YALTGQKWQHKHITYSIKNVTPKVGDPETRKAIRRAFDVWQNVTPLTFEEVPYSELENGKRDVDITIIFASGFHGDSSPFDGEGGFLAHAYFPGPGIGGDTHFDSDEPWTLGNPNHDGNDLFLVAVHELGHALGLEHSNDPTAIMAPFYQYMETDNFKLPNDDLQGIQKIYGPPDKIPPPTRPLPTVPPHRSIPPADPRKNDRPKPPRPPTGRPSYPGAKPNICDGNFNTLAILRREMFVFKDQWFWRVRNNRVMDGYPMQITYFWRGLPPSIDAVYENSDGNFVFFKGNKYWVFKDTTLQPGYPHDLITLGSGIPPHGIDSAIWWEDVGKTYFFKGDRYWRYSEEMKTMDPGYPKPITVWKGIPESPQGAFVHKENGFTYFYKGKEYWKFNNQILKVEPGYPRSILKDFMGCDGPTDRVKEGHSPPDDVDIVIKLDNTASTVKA
Description: as §1
as §2, with “MMP-16” for “MMP-14”, “1785-MP)” for “918-MP)”, “1” for “0.5”

[5] = biological target: T5, MMP-13 (Homo sapiens, UniProt P45452); assay: In vitro MMP-13 inhibition test
T5 construct: purchased R&D Systems 511-MP
Description: as §1
as §3, with “MMP-13” for “MMP-8”, “511-MP)” for “908-MP)”, “0.1” for “0.5”, “50” for “50 μl.”

T1 sequence (P08254 100-477): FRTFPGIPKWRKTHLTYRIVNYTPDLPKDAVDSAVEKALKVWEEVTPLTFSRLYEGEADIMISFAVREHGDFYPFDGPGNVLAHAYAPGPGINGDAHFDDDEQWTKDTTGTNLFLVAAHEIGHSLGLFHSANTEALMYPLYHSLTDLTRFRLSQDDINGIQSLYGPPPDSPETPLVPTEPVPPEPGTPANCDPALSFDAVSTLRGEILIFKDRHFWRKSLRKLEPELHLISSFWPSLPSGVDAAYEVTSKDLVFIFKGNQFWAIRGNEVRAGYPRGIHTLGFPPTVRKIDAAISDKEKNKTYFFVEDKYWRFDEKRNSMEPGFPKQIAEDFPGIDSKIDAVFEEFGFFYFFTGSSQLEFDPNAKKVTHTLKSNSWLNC

| Structure (SMILES) | IC50 [1] [µM] | IC50 [2] [µM] | IC50 [3] [µM] | IC50 [4] [µM] | IC50 [5] [µM] |
| --- | --- | --- | --- | --- | --- |
| O=C(O)[C@H]1[C@H](Cn2nnc3ccc(C(F)(F)F)cc3c2=O)CC[C@@H]1C(=O)c1ccc(SCc2ccc(Cl)c(Cl)c2)cc1 (racemic) [Example 79, (+/−)-(1RS,2RS,5SR)-2-{4-[(3,4-Dichlorobenzyl)sulphanyl]benzoyl}-5-{[4-oxo-6-(trifluoromethyl)-1,2,3-benzotriazin-3(4H)-yl]methyl}cyclopentanecarboxylic acid] | 0.8 | 8.7 | 0.28 | > 40 | 2.7 |
| CCCCCSc1ccc(C(=O)[C@H]2CC[C@@H](Cn3nnc4ccc(C(F)(F)F)cc4c3=O)[C@@H]2C(=O)O)cc1 (racemic) [Example 88, (+/−)-(1RS,2SR,5RS)-2-{[4-Oxo-6-(trifluoromethyl)-1,2,3-benzotriazin-3(4H)-yl]methyl}-5-[4-(pentylsulphanyl)benzoyl]cyclopentanecarboxylic acid] | 0.096 | 0.44 | 0.0062 | 0.67 | 0.23 |
| Cc1ccc2nnn(C[C@@H]3CC[C@H](C(=O)c4ccc(OCc5ccccc5)cc4)[C@H]3C(=O)O)c(=O)c2c1 (racemic) [Example 91, (+/−)-(1RS,2RS,5SR)-2-[4-(Benzyloxy)benzoyl]-5-[(6-methyl-4-oxo-1,2,3-benzotriazin-3(4H)-yl)methyl]cyclopentanecarboxylic acid] | 0.19 | 0.068 | 0.003 | 1.7 | 0.05 |
| Cc1cccc(COc2ccc(C(=O)[C@H]3CC[C@@H](Cn4nnc5ccc(C)cc5c4=O)[C@@H]3C(=O)O)cc2)c1 (racemic) [Example 97, (+/−)-(1RS,2RS,5SR)-2-{4-[(3-Methylbenzyl)oxy]benzoyl}-5-[(6-methyl-4-oxo-1,2,3-benzotriazin-3(4H)-yl)methyl]cyclopentanecarboxylic acid] | 2 | 0.87 | 0.31 | 4.5 | 1.5 |
| Cc1ccc2nnn(C[C@@H]3CC[C@H](C(=O)c4ccc(OCc5cccc(C(F)(F)F)c5)cc4)[C@H]3C(=O)O)c(=O)c2c1 (racemic) [Example 100, (+/−)-(1RS,2SR,5RS)-2-[(6-Methyl-4-oxo-1,2,3-benzotriazin-3(4H)-yl)methyl]-5-(4-{[3-(trifluoromethyl)benzyl]oxy}benzoyl)cyclopentanecarboxylic acid] | 1.5 | 0.72 | 0.043 | 0.97 | 0.36 |
| Cc1ccc2nnn(C[C@@H]3CC[C@H](C(=O)c4ccc(OCc5cccc(Cl)c5)cc4)[C@H]3C(=O)O)c(=O)c2c1 (racemic) [Example 103, (+/−)-(1RS,2RS,5SR)-2-{4-[(3-Chlorobenzyl)oxy]benzoyl}-5-[(6-methyl-4-oxo-1,2,3-benzotriazin-3(4H)-yl)methyl]cyclopentanecarboxylic acid] | 0.34 | 0.32 | 0.041 | 14 | 0.25 |
| COc1cccc(COc2ccc(C(=O)[C@H]3CC[C@@H](Cn4nnc5ccc(C)cc5c4=O)[C@@H]3C(=O)O)cc2)c1 (racemic) [Example 106, (+/−)-(1RS,2RS,5SR)-2-{4-[(3-Methoxybenzyl)oxy]benzoyl}-5-[(6-methyl-4-oxo-1,2,3-benzotriazin-3(4H)-yl)methyl]cyclopentanecarboxylic acid] | 0.45 | 0.18 | 0.011 | 0.19 | 0.12 |
| Cc1ccc2nnn(C[C@@H]3CC[C@H](C(=O)c4ccc(OCc5cccc(OC(F)(F)F)c5)cc4)[C@H]3C(=O)O)c(=O)c2c1 (racemic) [Example 109, (+/−)-(1RS,2SR,5RS)-2-[(6-Methyl-4-oxo-1,2,3-benzotriazin-3(4H)-yl)methyl]-5-(4-{[3-(trifluoromethoxy)benzyl]oxy}benzoyl)cyclopentanecarboxylic acid] | 0.84 | 0.67 | 0.087 | 3.2 | 0.19 |
| CCCCCOc1ccc(C(=O)[C@H]2CC[C@@H](Cn3nnc4ccc(C)cc4c3=O)[C@@H]2C(=O)O)cc1 (racemic) [Example 123, (+/−)-(1RS,2SR,5RS)-2-[(6-Methyl-4-oxo-1,2,3-benzotriazin-3(4H)-yl)methyl]-5-[4-(pentyloxy)benzoyl]cyclopentanecarboxylic acid] | 0.54 | 0.49 | 0.011 | 11 | 0.23 |
| O=C(O)[C@@H]1[C@@H](Cn2nnc3ccc(C(F)(F)F)cc3c2=O)CC[C@H]1C(=O)c1ccc(OCc2ccc(F)cc2)cc1 (single isomer, unassigned) [Example 13, (+)-(1RS,2RS,5SR)-2-{4-[(4-Fluorobenzyl)oxy]benzoyl}-5-{[4-oxo-6-(trifluoromethyl)-1,2,3-benzotriazin-3(4H)-yl]methyl}cyclopentanecarboxylic acid] | 0.062 | 0.15 | 0.00088 | 0.17 | 0.033 |
| Cc1cccc(COc2ccc(C(=O)[C@@H]3CC[C@H](Cn4nnc5ccc(C(F)(F)F)cc5c4=O)[C@H]3C(=O)O)cc2)c1 (single isomer, unassigned) [Example 16, (+)-(1RS,2RS,5SR)-2-{4-[(3-Methylbenzyl)oxy]benzoyl}-5-{[4-oxo-6-(trifluoromethyl)-1,2,3-benzotriazin-3(4H)-yl]methyl}cyclopentanecarboxylic acid] | 0.35 | 0.32 | 0.065 | 1.7 | 1 |
